The source of these data is ChEMBL document CHEMBL1134854, “Synthesis and biological evaluation of N-(7-indolyl)-3-pyridinesulfonamide derivatives as potent antitumor agents” (Bioorg Med Chem Lett, 2002).

The species named for one assay is Mus musculus. The experiment in a line: Number of deaths per total number of aminals tested; 0/5. In kind it is functional.
In assay [1] the test system is Colon cancer cell line. The experiment in a line: In vivo activity as average tumor volume on day 9/average tumor volume on day 1; drug administered intraperitoneal. In kind it is functional, Homo sapiens.
A further assay deals with HCT-116. The experiment in a line: Inhibitory concentration in vitro against HCT116 human colon cancer cells were determined for 72 h. It counts as functional, cell-based. The conditions noted are these: HCT-116, 72 h.
The test system of assay [2] is Colon cancer cell line. The experiment in a line: In vivo activity as average tumor weight on day 22/average tumor weight in control group on day 22*100; drug administered intraperitoneal. In kind it is functional, Homo sapiens.
Assay [3] has as its system Colon cancer cell line. In words: In vivo activity as average tumor volume on day 9/average tumor volume on day 1; drug administered per oral. It counts as functional, Homo sapiens.
For assay [4], the system named is Colon cancer cell line. In words: In vivo activity as average tumor weight on day 22/average tumor weight in control group on day 22*100; drug administered per oral. In kind it is functional, Homo sapiens.
Assay [5] deals with Colon cancer cell line. In words: In vivo activity as average tumor volume on day 9/average tumor volume on day 1; drug administered intra venously. In kind it is functional, Homo sapiens.
The test system of assay [6] is Colon cancer cell line. In words: In vivo activity as average tumor weight on day 22/average tumor weight in control group on day 22*100; drug administered intra venously. It counts as functional, Homo sapiens.
Assay [7] concerns Colon cancer cell line. In words: In vivo activity as average tumor volume on day 9/average tumor volume on day 1 drug administered per oral. In kind it is functional, Homo sapiens.

Where “and” joins values, the source holds several entries; their conditions need not be identical. Identical values can stand only once.

As to `CNc1ccc(S(=O)(=O)Nc2cccc3c(Cl)c[nH]c23)cn1`, in the assay filed under Mus musculus, the Deaths/total is on record as 0%. This compound also had a Day 9-RTV in the assay on Colon cancer cell line [1] of 0.24. For the same compound, the IC50 (in general, the concentration needed to halve the response being measured) in the assay on HCT-116 turned out to be 0.86 µM. Further, the “Day 22-T/C” value in the assay on Colon cancer cell line [2] stood at 38%.

As for `Cc1cncc(S(=O)(=O)Nc2cccc3c(C#N)c[nH]c23)c1`, the Day 9-RTV turned out to be 3.4 with Colon cancer cell line [3] and 0.52 in the assay with Colon cancer cell line [1]. Further, the entries for the “Day 22-T/C” value with Colon cancer cell line [4] and with Colon cancer cell line [2] were 106% and 30%, respectively. In the assay listed under Mus musculus, the Deaths/total is on record as 0%. This compound had a half-maximal inhibitory concentration (IC50) with HCT-116 of 0.19 µM.

As to `Nc1ccc(S(=O)(=O)Nc2cccc3c(Cl)c[nH]c23)cn1`, the Day 9-RTV in the assay on Colon cancer cell line [3] worked out at 0.19; in the assay on Colon cancer cell line [1], 0.3. The “Day 22-T/C” value came to 12% in the assay on Colon cancer cell line [4] and 26% in the assay with Colon cancer cell line [2]. The Deaths/total in the assay listed under Mus musculus was found to be 0%. Besides, the IC50 in the assay on HCT-116 stood at 0.71 µM.

With `CC(C)Nc1ccc(S(=O)(=O)Nc2cccc3c(Cl)c[nH]c23)cn1`, the Deaths/total in the assay listed under Mus musculus is given as 0%. For the same compound, the Day 9-RTV in the assay on Colon cancer cell line [1] was 0.28 and 0.9. In the assay on HCT-116, this compound showed an IC50 of 1.3 µM.

In the assay listed under Mus musculus, `O=S(=O)(Nc1cccc2c(Cl)c[nH]c12)c1ccc(O)nc1` showed a Deaths/total of 0%. For the same compound, the Day 9-RTV in the assay with Colon cancer cell line [1] is 3. Moreover, inhibition in the assay on HCT-116 was half-maximal at 0.8 µM (IC50). In the assay with Colon cancer cell line [2], the “Day 22-T/C” value was determined as 66%.

Regarding `NS(=O)(=O)c1ccc(S(=O)(=O)Nc2cccc3c(Cl)c[nH]c23)cn1`, the Day 9-RTV is 0.15 with Colon cancer cell line [5]; 0.1 and 0.29 with Colon cancer cell line [1]. The “Day 22-T/C” value in the assay with Colon cancer cell line [6] was 8%; with Colon cancer cell line [2], 12% and 23%. The same compound registered a Deaths/total in the assay filed under Mus musculus of 0%. The same compound yielded an IC50 in the assay with HCT-116 of 0.29 µM.

Compound `O=S(=O)(Nc1cccc2c(Cl)c[nH]c12)c1cccnc1` yielded a Deaths/total in the assay filed under Mus musculus of 0%. In the assay on Colon cancer cell line [1], this compound yielded a Day 9-RTV of 3.4. In addition, it took 0.26 µM to reach half-maximal inhibition in the assay on HCT-116 (IC50). Also, the “Day 22-T/C” value in the assay with Colon cancer cell line [2] came to 70%.

In the case of `Cc1cncc(S(=O)(=O)Nc2cccc3c(Cl)c[nH]c23)c1`, the Deaths/total in the assay filed under Mus musculus was 0%. Also, the Day 9-RTV in the assay on Colon cancer cell line [1] was found to be 3.7. Further, half-maximal inhibition with HCT-116 (IC50) was put at 0.22 µM. In addition, the “Day 22-T/C” value in the assay with Colon cancer cell line [2] turned out to be 82%.

Turning to `N#Cc1c[nH]c2c(NS(=O)(=O)c3ccc(N)nc3)cccc12`, the “Day 22-T/C” value in the assay on Colon cancer cell line [4] turned out to be 75%; in the assay with Colon cancer cell line [2], 35%. Also, the Deaths/total in the assay filed under Mus musculus was found to be 0%. The Day 9-RTV with Colon cancer cell line [1] amounted to 1.5; in the assay on Colon cancer cell line [7], 2.3. The same compound yielded an IC50 in the assay on HCT-116 of 0.64 µM.

Take `N#Cc1c[nH]c2c(NS(=O)(=O)c3cccnc3)cccc12`: the Deaths/total in the assay filed under Mus musculus was determined as 0%. In the assay on Colon cancer cell line [1], this compound yielded a Day 9-RTV of 2.6. Also, the half-maximal inhibitory concentration (IC50) in the assay on HCT-116 came to 0.23 µM. The “Day 22-T/C” value with Colon cancer cell line [2] was determined as 65%.

On to `O=S(=O)(Nc1cccc2c(Cl)c[nH]c12)c1ccc(NCCO)nc1`, for which, in the assay listed under Mus musculus, the Deaths/total was determined as 0%. In addition, in the assay on Colon cancer cell line [1], the Day 9-RTV was 4.3. The compound also yielded an IC50 in the assay on HCT-116 of 0.65 µM. The “Day 22-T/C” value in the assay on Colon cancer cell line [2] came to 89%.
